Experimental data published in PubChem BioAssay AID330 (DTP/NCI, 2004).
Several values for one entry are separate records, joined by “and”; a condition that tells them apart may be missing. Equal entries are not always repeated. Toxic doses and inconclusive results are not listed. The calls were made as follows: active = survival T/C of 150% or more; inactive = T/C below 125% in these data.

Test system: P388 leukemia ip, CD2F1 mice, survival T/C
Assay: NCI In Vivo Anticancer Drug Screen. Data for tumor model P388 Leukemia (intraperitoneal) in CD2F1 (CDF1) mice
Conditions: endpoint: median survival time, higher = longer survival
Summary of the method: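 Mice carrying the transplanted tumor received test compound or vehicle. Survival was recorded in each group, and the value is the treated-group measurement divided by that of the vehicle-treated control group.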

[1] = dose: 60.0 mg/kg/injection, schedule: Q01DX005 (ip), vehicle: saline with Tween-80
[2] = dose: 120.0 mg/kg/injection, schedule: Q01DX005 (ip), vehicle: saline with Tween-80
[3] = dose: 50.0 mg/kg/injection, schedule: Q01DX005 (ip), vehicle: Klucel (hydroxypropylcellulose) (HPC)
[4] = dose: 100.0 mg/kg/injection, schedule: Q01DX005 (ip), vehicle: Klucel (hydroxypropylcellulose) (HPC)
[5] = dose: 200.0 mg/kg/injection, schedule: Q01DX005 (ip), vehicle: Klucel (hydroxypropylcellulose) (HPC)
[6] = dose: 50.0 mg/kg/injection, schedule: Q01DX005 (ip), vehicle: saline with Tween-80
[7] = dose: 100.0 mg/kg/injection, schedule: Q01DX005 (ip), vehicle: saline with Tween-80
[8] = dose: 240.0 mg/kg/injection, schedule: Q01DX005 (ip), vehicle: saline with Tween-80
[9] = dose: 50.0 mg/kg/injection, schedule: Q01DX009 (ip), vehicle: saline with Tween-80
[10] = dose: 100.0 mg/kg/injection, schedule: Q01DX009 (ip), vehicle: saline with Tween-80
[11] = dose: 200.0 mg/kg/injection, schedule: Q01DX009 (ip), vehicle: saline with Tween-80

Measured: T/C

COc1ccc(N2C(N)=NC(N)=NC2(C)C)cc1
inactive: dose: 6.25 mg/kg/injection, schedule: Q01DX005 (ip), vehicle: saline with Tween-80 93 % of control | dose: 12.5 mg/kg/injection, schedule: Q01DX005 (ip), vehicle: saline with Tween-80 102 % of control | dose: 25.0 mg/kg/injection, schedule: Q01DX005 (ip), vehicle: saline with Tween-80 107 % of control

C=CC(C(=C)C(=O)OC)c1ccccc1 (configuration not stated)
inactive: dose: 60.0 mg/kg/injection, schedule: Q01DX005 (ip), vehicle: saline 100 % of control | dose: 120.0 mg/kg/injection, schedule: Q01DX005 (ip), vehicle: saline 109 % of control | dose: 240.0 mg/kg/injection, schedule: Q01DX005 (ip), vehicle: saline 103 % of control

CC(=O)Nc1ccc(/C=C2/C(=O)ON=C2C)cc1
inactive: [1] 116 % of control | [2] 116 % of control

O=S(=O)(c1ccc(NC(=S)NCc2ccco2)cc1)N1CCCCC1
inactive: dose: 50.0 mg/kg/injection, schedule: Q01DX009 (ip), vehicle: Klucel (hydroxypropylcellulose) (HPC) 88 % of control | dose: 100.0 mg/kg/injection, schedule: Q01DX009 (ip), vehicle: Klucel (hydroxypropylcellulose) (HPC) 93 % of control | dose: 200.0 mg/kg/injection, schedule: Q01DX009 (ip), vehicle: Klucel (hydroxypropylcellulose) (HPC) 92 % of control

O=C1c2cc(I)cc(I)c2NC(O)c2cccn21 (configuration not stated)
inactive: dose: 0.1 mg/kg/injection, schedule: Q01DX005 (ip), vehicle: water 102 % of control | dose: 0.2 mg/kg/injection, schedule: Q01DX005 (ip), vehicle: water 98 % of control | dose: 0.4 mg/kg/injection, schedule: Q01DX005 (ip), vehicle: water 102 % of control | dose: 0.8 mg/kg/injection, schedule: Q01DX005 (ip), vehicle: water 98 % of control | dose: 1.6 mg/kg/injection, schedule: Q01DX005 (ip), vehicle: water 99 % of control | dose: 5.0 mg/kg/injection, schedule: Q01DX005 (ip), vehicle: distilled water + Tween-80 94 % of control | dose: 10.0 mg/kg/injection, schedule: Q01DX005 (ip), vehicle: distilled water + Tween-80 95 % of control | dose: 20.0 mg/kg/injection, schedule: Q01DX005 (ip), vehicle: distilled water + Tween-80 102 % of control | dose: 40.0 mg/kg/injection, schedule: Q01DX005 (ip), vehicle: distilled water + Tween-80 102 % of control | dose: 80.0 mg/kg/injection, schedule: Q01DX005 (ip), vehicle: distilled water + Tween-80 98 % of control

COc1cc2c(c3c1c(=O)c1cccnc1n3C)C=CC(C)(C)O2
inactive: [3] 101 % of control | [4] 101 % of control | [5] 91 % of control

Cc1cc(N(CCCl)CCCl)ccc1CN1CCCN(Cc2ccc(N(CCCl)CCCl)cc2C)C1c1ccccc1O
inactive: dose: 12.5 mg/kg/injection, schedule: Q01DX009 (ip), vehicle: saline with Tween-80 123 % of control

C=CN1CCCC1=O
inactive: dose: 100.0 mg/kg/injection, schedule: Q04DX003 (ip), vehicle: saline 104 % of control | dose: 200.0 mg/kg/injection, schedule: Q04DX003 (ip), vehicle: saline 100 % of control | dose: 0.25 % in 0.5 ml injection vol, schedule: Q01DX009 (ip), vehicle: water 100 % of control | dose: 400.0 mg/kg/injection, schedule: Q04DX003 (ip), vehicle: saline 100 % of control | dose: 0.5 % in 0.5 ml injection vol, schedule: Q01DX009 (ip), vehicle: water 107 % of control | dose: 1.0 % in 0.5 ml injection vol, schedule: Q01DX009 (ip), vehicle: water 100 % of control and 102 % of control | dose: 2.0 % in 0.5 ml injection vol, schedule: Q01DX009 (ip), vehicle: water 100 % of control and 98 % of control | dose: 4.0 % in 0.5 ml injection vol, schedule: Q01DX009 (ip), vehicle: water 102 % of control and 104 % of control and 108 % of control | dose: 8.0 % in 0.5 ml injection vol, schedule: Q01DX009 (ip), vehicle: water 102 % of control and 109 % of control and 92 % of control | dose: 16.0 % in 0.5 ml injection vol, schedule: Q01DX009 (ip), vehicle: water 100 % of control and 103 % of control and 95 % of control

OCC1OC(n2c(=S)[nH]c3ccccc32)C(O)C1O (configuration not stated)
inactive: [1] 98 % of control | [2] 98 % of control

Cc1c2c(cc3c4ccccc4n(C)c13)C(=O)NC2=O
inactive: [6] 91 % of control | [7] 90 % of control

CC1(C)Cc2nc3ccccc3nc2-c2ccccc21
inactive: [6] 101 % of control | [7] 98 % of control | dose: 200.0 mg/kg/injection, schedule: Q01DX005 (ip), vehicle: saline with Tween-80 100 % of control

Nc1nc(=S)c2[nH]c(=S)n(C3OC(CO)C(O)C3O)c2[nH]1 (configuration not stated)
inactive: dose: 25.0 mg/kg/injection, schedule: Q01DX005 (ip), vehicle: Klucel (hydroxypropylcellulose) (HPC) 100 % of control | [3] 105 % of control | [4] 103 % of control | [5] 112 % of control

Cc1ccc2occ3c(=O)n(C)nc-3c2c1
inactive: [1] 95 % of control | [2] 91 % of control | [8] 94 % of control

CC1(CN2CCCCC2)COc2c(Cl)cc(Cl)cc2C1=O (configuration not stated)
inactive: [1] 94 % of control | [2] 94 % of control | [8] 86 % of control

Nc1nnc(/C=C/c2ccc(Cl)c(Cl)c2)o1
inactive: [1] 95 % of control | [2] 103 % of control | [8] 102 % of control

COc1ccc(CC2=NCCc3cc(OC)c(OC)cc32)cc1OC
inactive: dose: 22.0 mg/kg/injection, schedule: Q01DX009 (ip), vehicle: saline 104 % of control | dose: 33.0 mg/kg/injection, schedule: Q01DX009 (ip), vehicle: saline 103 % of control | dose: 50.0 mg/kg/injection, schedule: Q01DX009 (ip), vehicle: saline 103 % of control | dose: 75.0 mg/kg/injection, schedule: Q01DX009 (ip), vehicle: saline 102 % of control

NC(=S)N/N=C\C12CC3CC(CC(C3)C1)C2
inactive: [9] 96 % of control | [10] 108 % of control

Cc1nnc(NS(=O)(=O)c2ccc(N=Nc3cc(N=Nc4ccc(S(=O)(=O)Nc5nnc(C)s5)cc4)c4c(NC(=O)C(Cl)Cl)cccc4c3OC(=O)C(Cl)Cl)cc2)s1 (tested in a mixture with another compound)
inactive: dose: 3.12 mg/kg/injection, schedule: Q01DX009 (ip), vehicle: Klucel (hydroxypropylcellulose) (HPC) 111 % of control | dose: 6.25 mg/kg/injection, schedule: Q01DX009 (ip), vehicle: Klucel (hydroxypropylcellulose) (HPC) 116 % of control | dose: 6.25 mg/kg/injection, schedule: Q01DX009 (ip), vehicle: saline with Tween-80 109 % of control | dose: 12.5 mg/kg/injection, schedule: Q01DX009 (ip), vehicle: Klucel (hydroxypropylcellulose) (HPC) 120 % of control | [9] 99 % of control and 97 % of control | [10] 100 % of control | [11] 98 % of control

O=C(O)c1ccc(NC(=O)c2ccco2)cc1
inactive: [9] 88 % of control | [10] 97 % of control | [11] 89 % of control

C/C(=N\NC(=S)Nc1ccc(C(=O)O)cc1)c1ccc2ccccc2n1
inactive: [6] 105 % of control | [7] 114 % of control

O=C1c2ccccc2C(=O)c2c1ccc1c2CCC1
inactive: dose: 7.5 mg/kg/injection, schedule: Q01DX009 (ip), vehicle: saline with Tween-80 97 % of control | dose: 15.0 mg/kg/injection, schedule: Q01DX009 (ip), vehicle: saline with Tween-80 95 % of control | dose: 30.0 mg/kg/injection, schedule: Q01DX009 (ip), vehicle: saline with Tween-80 105 % of control

CC(O)C(O)C=O (configuration not stated)
inactive: dose: 248.0 mg/kg/injection, schedule: Q01DX010 (ip), vehicle: saline 110 % of control

O=C1NC2C(=CC(O)C(O)C2O)c2cc3c(cc21)OCO3 (configuration not stated)
inactive: dose: 3.12 mg/kg/injection, schedule: Q01DX009 (ip), vehicle: saline + alcohol 102 % of control | dose: 6.25 mg/kg/injection, schedule: Q01DX005 (ip), vehicle: saline + alcohol 111 % of control | dose: 6.25 mg/kg/injection, schedule: Q01DX009 (ip), vehicle: saline + alcohol 102 % of control | dose: 12.5 mg/kg/injection, schedule: Q01DX005 (ip), vehicle: saline + alcohol 111 % of control | dose: 25.0 mg/kg/injection, schedule: Q01DX005 (ip), vehicle: saline + alcohol 105 % of control | dose: 25.0 mg/kg/injection, schedule: Q01DX009 (ip), vehicle: saline + alcohol 101 % of control | dose: 50.0 mg/kg/injection, schedule: Q01DX005 (ip), vehicle: saline + alcohol 105 % of control

C[Se]C([Se]C)=C([Se]C)[Se]C
inactive: dose: 15.0 mg/kg/injection, schedule: Q01DX005 (ip), vehicle: saline with Tween-80 107 % of control | dose: 30.0 mg/kg/injection, schedule: Q01DX005 (ip), vehicle: saline with Tween-80 108 % of control | [1] 100 % of control and 91 % of control
